Measurements published in patent US11306124B2, “Agonist agents of CD47 inducing programmed cell death and their use in the treatments of diseases associated with defects in programmed cell death” (SORBONNE UNIVERSITE, priority 2016, dated 2022).
Like-named read-outs stand apart in the source and are kept apart here. Residues, ends and D or L forms follow the SMILES beside them.

Tests used:
[1] = test system: MCF-7, HCT-116, BxPC3 and A549 cancer cells; experiment: Cell viability and proliferation of tumor cells (cytotoxic assay and direct cell counting); assay type: cell-based, human; settings: for viability in all cell strains: 2 hours, 10 to 50 μM peptide concentration
Experimental: The effects of several cyclic peptides of the invention on the proliferation of tumor cells were evaluated on 5 cell lines (MCF-7, human breast cancer cells; HCT-116, human colon cancer cells; BxPC3, human pancreas cancer cells and A549, human lung cancer cells) by cytotoxic assay and by counting directly the number of cells.
Those cyclic peptides were dissolved in DMSO at the following concentrations: 0, 5, 10, 25, 50 and 100 μM.
Culture media used for these assays are: EMEM=10% SVF for MCF-7 and Wi38; RPMI […] SVF for HCT-116 and BxPC3 and F-12K=10% SVF for A549.
500 cells were seeded in 96-well plates, incubated at 37° C. for 24 hours, and treated by the cyclic peptides at the different concentrations and controls for 2 h.

HCT-116 cells = assay type: cell-based, human; settings: for Early Apoptosis, Mean (%) / Late apoptosis, Mean (%): HCT-116 cells; for Early Apoptosis, Mean (%) / Late apoptosis, Mean (%) / Viable, Mean (%): 2 h; for Viable, Mean (%): human
Experimental: 2.2.2. Cell Death Analysis by Flow Cytometry
To detect possible apoptotic processes, cells were seeded in 35 mm dishes and cultured in media containing each tested cyclic peptide for 2 hours following procedure A or B.
Procedure B: Peptides were incubated for 2 hours on HCT-116 cells. Superkiller Trail (ALX-201-115C-010) was used as a positive pro-apoptotic control. Cells were analyzed by cytofluorometry using FITC Annexin V apoptosis detection kit with 7-AAD from BIOLEGEND (BLE640922).

[2] = test system: Trypsin, Chymotrypsin and Proteinase K; experiment: Proteolytic stability (incubation with proteases or in Human Serum); assay type: in vitro ADME
Experimental: Proteolytic stability studies were performed by peptides incubation with proteases (such as Trypsin, Chymotrypsin and Proteinase K) or in Human Serum as described earlier (See Karoyan et al. J. Med. Chem. 2016).

[3] = test system: B-chronic lymphocytic leukemia (CLL) primary cells; settings: cited from earlier work; for induction of caspase-independent PCD: soluble peptide, CLL primary cells
[4] = peptide concentration 12.5 (μM)

Compound | Early Apoptosis, Mean (%) (HCT-116 cells; [4]) | Late apoptosis, Mean (%) (HCT-116 cells; [4]) | Early Apoptosis, Mean (%) (HCT-116 cells; peptide concentration 25 (μM)) | Late apoptosis, Mean (%) (HCT-116 cells; peptide concentration 25 (μM)) | Early Apoptosis, Mean (%) (HCT-116 cells; peptide concentration 50 (μM)) | Late apoptosis, Mean (%) (HCT-116 cells; peptide concentration 50 (μM)) | Viable, Mean (%) (HCT-116 cells; 12.5 μM) | Viable, Mean (%) (HCT-116 cells; 25 μM) | Viable, Mean (%) (HCT-116 cells; 50 μM) | stability toward proteases [2] | viability in all cell strains [1] | also measured
CSCC[C@@H]1NC(=O)[C@H](C(C)C)NC(=O)[C@H](C(C)C)NC(=O)[C@H](Cc2ccc(O)cc2)NC(=O)[C@H](Cc2ccccc2)NC(=O)[C@H](CCCNC(=N)N)NC(=O)[C@H](CCCCN)NC(=O)[C@H](Cc2c[nH]c3ccccc23)NC1=O [PKC1, reference compound] | 4.54 | 2.25 | 4.55 | 2.56 | 4.98 | 2.75 | 92.95 | 92.72 | 92.15 | – | – | efficiency in inducing cell death on cancer cell lines ([1]; MCF-7, HCT-116, BxPC3, A549): no potency in inducing cell death; efficacy in triggering PCD (HCT-116 cells; from 12.5 to 50 μM): no efficacy
CSCC[C@@H]1NC(=O)[C@H](C(C)C)NC(=O)[C@H](C(C)C)NC(=O)[C@H](Cc2ccc(O)cc2)NC(=O)[C@H](Cc2ccccc2)NC(=O)[C@H](C(C)C)NC(=O)[C@H](C(C)C)NC(=O)[C@H](CCCCN)NC(=O)[C@H](C(C)C)NC(=O)[C@H](CO)NC(=O)[C@H](CC(C)C)NC(=O)[C@@H]2CCCN2C(=O)[C@H]2CCCN2C(=O)[C@H](Cc2c[nH]c3ccccc23)NC1=O [PKD8, —F—Y—V—V—M—W—p—P—L—S—V—K—V—V—] (HELM PEPTIDE1{L.S.V.K.V.V.F.Y.V.V.M.W.[dP].P}$PEPTIDE1,PEPTIDE1,1:R1-14:R2$$$V2.0) | – | – | – | – | – | – | – | – | – | fully stable | – | –
CCCC[C@@H]1NC(=O)[C@H](C(C)C)NC(=O)[C@H](C(C)C)NC(=O)[C@H](Cc2ccc(O)cc2)NC(=O)[C@H](Cc2ccccc2)NC(=O)[C@H](C(C)C)NC(=O)[C@H](C(C)C)NC(=O)[C@H](CCCCN)NC(=O)[C@H](C(C)C)NC(=O)[C@H](CO)NC(=O)[C@H](CC(C)C)NC(=O)[C@@H]2CCCN2C(=O)[C@H]2CCCN2C(=O)[C@H](Cc2c[nH]c3ccccc23)NC1=O [PKD9, —F—Y—V—V—X—W—p—P—L—S—V—K—V—V— X = NLe] (HELM PEPTIDE1{L.S.V.K.V.V.F.Y.V.V.[Nle].W.[dP].P}$PEPTIDE1,PEPTIDE1,1:R1-14:R2$$$V2.0) | – | – | – | – | – | – | – | – | – | fully stable | – | –
CC(C)C[C@@H]1NC(=O)[C@@H]2CCCN2C(=O)[C@H]2CCCN2C(=O)[C@H](Cc2c[nH]c3ccccc23)NC(=O)[C@H](CCCCN)NC(=O)[C@H](C(C)C)NC(=O)[C@H](C(C)C)NC(=O)[C@H](Cc2ccc(O)cc2)NC(=O)[C@H](Cc2ccccc2)NC(=O)[C@H](C(C)C)NC(=O)[C@H](C(C)C)NC(=O)[C@H](CCCCN)NC(=O)[C@H](C(C)C)NC(=O)[C@H](CO)NC1=O [PKD10, —F—Y—V—V—K—W—p—P—L—S—V—K—V—V—] (HELM PEPTIDE1{L.S.V.K.V.V.F.Y.V.V.K.W.[dP].P}$PEPTIDE1,PEPTIDE1,1:R1-14:R2$$$V2.0) | – | – | – | – | – | – | – | – | – | fully stable | – | –
CSCC[C@@H]1NC(=O)[C@H](C(C)C)NC(=O)[C@H](C(C)C)NC(=O)[C@H](Cc2ccc(O)cc2)NC(=O)[C@H](Cc2ccccc2)NC(=O)[C@H](CCCNC(=N)N)NC(=O)[C@H](CO)NC(=O)[C@H](CO)NC(=O)[C@H](CC(N)=O)NC(=O)[C@H](C(C)C)NC(=O)[C@H](C(C)C)NC(=O)[C@H](CCCCN)NC(=O)[C@H](C(C)C)NC(=O)[C@H](C)NC(=O)[C@H](CC(C)C)NC(=O)CNC(=O)[C@@H]2CCCN2C(=O)[C@H]2CCCN2C(=O)[C@H](CCCCN)NC(=O)[C@H](Cc2c[nH]c3ccccc23)NC1=O [PKTD10-3, —S—R—F—Y—V—V—M—W—K—p—P—G—L—A—V—K—V—V—N—S—] (HELM PEPTIDE1{S.R.F.Y.V.V.M.W.K.[dP].P.G.L.A.V.K.V.V.N.S}$PEPTIDE1,PEPTIDE1,1:R1-20:R2$$$V2.0) | 8.17 | 4.35 | 13.16 | 7.06 | 13.13 | 6.85 | 86.83 | 79.30 | 79.67 | – | dose-dependent viability decrease | –
CSCC[C@@H]1NC(=O)[C@H](C(C)C)NC(=O)[C@H](C(C)C)NC(=O)[C@H](Cc2ccc(O)cc2)NC(=O)[C@H](Cc2ccccc2)NC(=O)[C@H](CCCNC(=N)N)NC(=O)[C@H](CO)NC(=O)[C@H](CO)NC(=O)[C@H](CC(N)=O)NC(=O)[C@H](C(C)C)NC(=O)[C@H](C(C)C)NC(=O)[C@H](CCCCN)NC(=O)[C@H](C)NC(=O)[C@H](CO)NC(=O)[C@H](CC(C)C)NC(=O)CNC(=O)[C@@H]2CCCN2C(=O)[C@H]2CCCN2C(=O)[C@H](CCCCN)NC(=O)[C@H](Cc2c[nH]c3ccccc23)NC1=O [PKTD10-4, —S—R—F—Y—V—V—M—W—K—p—P—G—L—S—A—K—V—V—N—S—] (HELM PEPTIDE1{S.R.F.Y.V.V.M.W.K.[dP].P.G.L.S.A.K.V.V.N.S}$PEPTIDE1,PEPTIDE1,1:R1-20:R2$$$V2.0) | 9.27 | 4.39 | 11.91 | 5.54 | 15.68 | 7.53 | 85.90 | 82.41 | 76.52 | – | dose-dependent viability decrease | –
CSCC[C@@H]1NC(=O)[C@H](C(C)C)NC(=O)[C@H](C(C)C)NC(=O)[C@H](Cc2ccc(O)cc2)NC(=O)[C@H](Cc2ccccc2)NC(=O)[C@H](CCCNC(=N)N)NC(=O)[C@H](CC(N)=O)NC(=O)[C@H](C(C)C)NC(=O)[C@H](C(C)C)NC(=O)[C@H](CCCCN)NC(=O)[C@H](C(C)C)NC(=O)[C@H](CO)NC(=O)[C@H](CC(C)C)NC(=O)CNC(=O)[C@H](CO)NC(=O)[C@@H]2CCCN2C(=O)[C@H]2CCCN2C(=O)[C@H](CCC(N)=O)NC(=O)[C@H](CCCCN)NC(=O)[C@H](Cc2c[nH]c3ccccc23)NC1=O [PKTD12, —R—F—Y—V—V—M—W—K—Q—p—P—S—G—L—S—V—K—V—V—N—] (HELM PEPTIDE1{R.F.Y.V.V.M.W.K.Q.[dP].P.S.G.L.S.V.K.V.V.N}$PEPTIDE1,PEPTIDE1,1:R1-20:R2$$$V2.0) | 5.78 | 3.11 | 7.15 | 3.26 | 19.16 | 6.80 | 90.87 | 89.42 | 73.78 | – | dose-dependent viability decrease | –
K-RFYVVMWK-K (KRFYVVMWKK; listed as Homo sapiens) [Peptide 4N1K, soluble decapeptide that mimics the C-terminal domain of TSP-1] | – | – | – | – | – | – | – | – | – | – | – | selective elimination of leukemic B-cells versus healthy B-lymphocytes or resting normal B-cells from CLL patients ([3]; CD47 ligation): specifically eliminates leukemic B-cells; induction of caspase-independent PCD [3]: induces caspase-independent PCD
KRFYGGMWKK [Peptide 4NGG, linear negative control peptide, 4N1K mutated in two amino acids] | – | – | – | – | – | – | – | – | – | – | – | induction of caspase-independent PCD [3]: unable to induce PCD
